Source: patent publication US20240043435A1, “TYK-2 INHIBITOR” (BEIGENE, LTD., priority 2020, published 2024)

Legend:
[1] = target: T1, TYK2-JH2 (aa 575-869, in-house) protein (Homo sapiens, UniProt P29597); experiment: TYK2-JH2 biochemical assay (HTRF probe displacement); assay type: binding; conditions: Biochemical assay; read-out: TYK2-JH2 IC50
T1 construct: TYK2-JH2 (aa 575-869, in-house) protein; made in house
How it was run: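 HTRF probe-displacement format: compound dilutions (10 points, 5-fold, from 500 uM in DMSO at 500×) were combined with 0.2 nM TYK2-JH2 protein for 0.5 h at room temperature in HEPES pH 7.5 buffer with MgCl2, BSA, DTT and Brij-35. Percent inhibition came from the 615/665 nm fluorescence ratio, fitted to a four-parameter logistic for IC50.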

[2] = tested on: JAK2, TYK2/p-STAT4 (Tyr693) activated by IL-12 in NK-92 cell line; experiment: IL-12-JAK2, TYK2/p-STAT4 (Tyr693) inhibition IC50 cellular assay; assay type: cell-based; conditions: NK92, Cellular assay; read-out: pSTAT4/IL-12 IC50
How it was run: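 p-STAT4 (Tyr693) in lysates was measured by AlphaLISA SureFire Ultra after a 30 min IL-12 challenge (40 ng/ml final) at 37° C. Overnight-starved, IL-2-free NK-92 cells had been pretreated 1 h with compound at 10000 to 0.61 nM (4-fold, 8 points). IC50 values came from four-parameter logistic fitting.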

[3] = tested on: pSTAT5/GM-CSF; experiment: pSTAT5/GM-CSF cellular assay (JAK2 selectivity); assay type: cell-based; conditions: for Selectivity fold (TYK2/JAK2): pSTAT5/GM-CSF IC50 over pSTAT4/IL-12 IC50

T1 sequence (P29597 575-869): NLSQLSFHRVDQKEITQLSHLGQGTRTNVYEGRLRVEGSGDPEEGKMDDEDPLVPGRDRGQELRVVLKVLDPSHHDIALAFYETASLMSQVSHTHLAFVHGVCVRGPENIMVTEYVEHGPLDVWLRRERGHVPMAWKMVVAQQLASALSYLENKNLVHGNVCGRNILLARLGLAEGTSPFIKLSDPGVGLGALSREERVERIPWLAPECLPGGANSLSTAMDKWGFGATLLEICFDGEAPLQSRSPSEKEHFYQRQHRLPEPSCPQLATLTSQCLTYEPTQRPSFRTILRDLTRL

Structure (SMILES)	IC50 [1] [nM]	IC50 [2] [nM]	IC50 [3] [µM]	Selectivity fold (TYK2/JAK2) [3] [fold]
CCn1ccc(-c2cnc(NC(C)=O)cc2Nc2cccc(S(C)(=O)=O)c2)n1 [Example M8, N-(5-(1-ethyl-1H-pyrazol-3-yl)-4-((3-(methylsulfonyl)phenyl)amino)pyridin-2-yl)acetamide]	0.04	1.64	> 10	>6097
CCn1ccc(-c2cnc(NC(C)=O)cc2Nc2cc(OC)cc(S(C)(=O)=O)c2)n1 [Example M9, N-(5-(1-ethyl-1H-pyrazol-3-yl)-4-((3-methoxy-5-(methylsulfonyl)phenyl)amino)pyridin-2-yl)acetamide]	0.035	7.06	> 10	>1416
CCn1ccc(-c2cnc(NC(C)=O)cc2Nc2cc(C)cc(S(C)(=O)=O)c2)n1 [Example M11, N-(5-(1-ethyl-1H-pyrazol-3-yl)-4-((3-methyl-5-(methylsulfonyl)phenyl)amino)pyridin-2-yl)acetamide]	0.034	9.03	> 10	>1107
CCn1ccc(-c2cnc(NC(C)=O)cc2Nc2cc(COC)cc(S(C)(=O)=O)c2)n1 [Example M12, N-(5-(1-ethyl-1H-pyrazol-3-yl)-4-((3-(methoxymethyl)-5-(methylsulfonyl)phenyl)amino)pyridin-2-yl)acetamide]	0.03	9.12	> 10	>1096
CCn1ccc(-c2cnc(NC(C)=O)cc2Nc2cc(OCCOC)cc(S(C)(=O)=O)c2)n1 [Example M14, N-(5-(1-ethyl-1H-pyrazol-3-yl)-4-((3-(2-methoxyethoxy)-5-(methylsulfonyl)phenyl)amino)pyridin-2-yl)acetamide]	0.03	9.46	> 10	>1057
CCn1ccc(-c2cnc(NC(C)=O)cc2Nc2cc(OCCO)cc(S(C)(=O)=O)c2)n1 [Example M15, N-(5-(1-ethyl-1H-pyrazol-3-yl)-4-((3-(2-hydroxyethoxy)-5-(methylsulfonyl)phenyl)amino)pyridin-2-yl)acetamide]	0.048	10.2	> 10	>977
CCn1ccc(-c2cnc(NC(C)=O)cc2Nc2nc(S(C)(=O)=O)ccc2OC(C)C)n1 [Example M21, N-(5-(1-ethyl-1H-pyrazol-3-yl)-4-((3-isopropoxy-6-(methylsulfonyl)pyridin-2-yl)amino)pyridin-2-yl)acetamide]	0.035	1.69	> 10	>5917
CC(=O)Nc1cc(Nc2cccc(S(C)(=O)=O)n2)c(-c2ccn(C(C)C)n2)cn1 [Example M22, N-(5-(1-isopropyl-1H-pyrazol-3-yl)-4-((6-(methylsulfonyl)pyridin-2-yl)amino)pyridin-2-yl)acetamide]	0.027	0.316	0.532	1683
COCCOc1cc(Nc2cc(NC(C)=O)ncc2-c2ccn(C(C)C)n2)nc(S(C)(=O)=O)c1 [Example M24, N-(5-(1-isopropyl-1H-pyrazol-3-yl)-4-((4-(2-methoxyethoxy)-6-(methylsulfonyl)pyridin-2-yl)amino)pyridin-2-yl)acetamide]	0.032	0.487	2.18	4466

Continued, in another order:

IC50 [1] [nM]	IC50 [2] [nM]	IC50 [3] [µM]	Structure (SMILES)	Selectivity fold (TYK2/JAK2) [3] [fold]
0.031	0.526	8.35	CC(=O)Nc1cc(Nc2cc(C)cc(S(C)(=O)=O)n2)c(-c2ccn(C3CC3)n2)cn1 [Example M3, N-(5-(1-cyclopropyl-1H-pyrazol-3-yl)-4-((4-methyl-6-(methylsulfonyl)pyridin-2-yl)amino)pyridin-2-yl)acetamide]	15876
0.026	0.681	> 10	COCCOc1cc(Nc2cc(NC(C)=O)ncc2-c2ccn(C3CC3)n2)nc(S(C)(=O)=O)c1 [Example M4, N-(5-(1-cyclopropyl-1H-pyrazol-3-yl)-4-((4-(2-methoxyethoxy)-6-(methylsulfonyl)pyridin-2-yl)amino)pyridin-2-yl)acetamide]	>14684
0.032	0.189	1.55	CCn1ccc(-c2cnc(NC(C)=O)cc2Nc2cccc(S(C)(=O)=O)n2)n1 [Example M5, N-(5-(1-ethyl-1H-pyrazol-3-yl)-4-((6-(methylsulfonyl)pyridin-2-yl)amino)pyridin-2-yl)acetamide]	8206
0.032	1.21	> 10	CCn1ccc(-c2cnc(NC(C)=O)cc2Nc2cc(OC(C)C)cc(S(C)(=O)=O)n2)n1 [Example M6, N-(5-(1-ethyl-1H-pyrazol-3-yl)-4-((4-isopropoxy-6-(methylsulfonyl)pyridin-2-yl)amino)pyridin-2-yl)acetamide]	>8264
0.026	0.537	> 10	CCn1ccc(-c2cnc(NC(C)=O)cc2Nc2cc(COC)cc(S(C)(=O)=O)n2)n1 [Example M7, N-(5-(1-ethyl-1H-pyrazol-3-yl)-4-((4-(methoxymethyl)-6-(methylsulfonyl)pyridin-2-yl)amino)pyridin-2-yl)acetamide]	>18621
0.041	1.09	> 10	CCn1ccc(-c2cnc(NC(C)=O)cc2Nc2cc(OC3CCCC3)cc(S(C)(=O)=O)n2)n1 [Example M17, N-(4-((4-(cyclopentyloxy)-6-(methylsulfonyl)pyridin-2-yl)amino)-5-(1-ethyl-1H-pyrazol-3-yl)pyridin-2-yl)acetamide]	>9174
0.026	0.989	> 10	CCOc1cc(Nc2cc(NC(C)=O)ncc2-c2ccn(CC)n2)nc(S(C)(=O)=O)c1 [Example M18, N-(4-((4-ethoxy-6-(methylsulfonyl)pyridin-2-yl)amino)-5-(1-ethyl-1H-pyrazol-3-y)pyridin-2-yl)acetamide]	>10111
0.032	2.55	> 10	CCn1ccc(-c2cnc(NC(C)=O)cc2Nc2cc(OCCO)cc(S(C)(=O)=O)n2)n1 [Example M19, N-(5-(1-ethyl-1H-pyrazol-3-yl)-4-((4-(2-hydroxyethoxy)-6-(methylsulfonyl)pyridin-2-yl)amino)pyridin-2-yl)acetamide]	>3921
0.062	1.01	> 10	CCn1ccc(-c2cnc(NC(C)=O)cc2Nc2cc(OCCOC)cc(S(C)(=O)=O)n2)n1 [Example M20, N-(5-(1-ethyl-1H-pyrazol-3-yl)-4-((4-(2-methoxyethoxy)-6-(methylsulfonyl)pyridin-2-yl)amino)pyridin-2-yl)acetamide]	>9900
0.031	1.08	3.75	CC(=O)Nc1cc(Nc2cc(OC(C)C)cc(S(C)(=O)=O)n2)c(-c2ccn(C(C)C)n2)cn1 [Example M23, N-(4-((4-isopropoxy-6-(methylsulfonyl)pyridin-2-yl)amino)-5-(1-isopropyl-1H-pyrazol-3-yl)pyridin-2-yl)acetamide]	3471
